Laboratory results as given in patent US20250066289A1, “BIGUANIDE DERIVATIVE OF IBUPROFEN AND PROCESS OF PREPARATION THEREOF” (BVDU's Poona College of Pharmacy, priority 2023, published 2025).

Columns and labels:
[1] = system: STZ induced diabetic rats; experiment: STZ induced diabetic study, fasting blood glucose; format: in vivo, Male Wistar rats; details: for Fasting Blood Glucose (FBG): Mean ± SD, n=4
Description: (§1) Male Wistar rats weighing between 200 and 250 g were used for the studies. The animals were kept in animal cages with free access to standard pellet food and water at a temperature of 23±2° C., a 12-hour cycle of darkness and light, and a relative humidity of roughly 45 to 65%. The Institutional Animal Ethics Committee (IAEC) authorized the protocol, and the animal experiments were carried out in accordance with it as well as the Indian regulations established by the Committee for the Purpose of Control and Supervision of Experimental Animals (CPCSEA), New Delhi.
An intraperitoneal injection of streptozotocin (STZ, 55 mg/kg of body weight) was used to cause diabetes. STZ was dissolved in 0.1 mol/L citrate buffer, pH 4.5, and injected into the peritoneal cavity. The fasting blood glucose concentration (FBG) was used for diagnosis of diabetes. Animals having blood glucose level greater than 16.7 mmol/L after 24 hours were deemed diabetic. These animals were further selected for the study.
The animals (n=4) were divided into four groups. • Group 1: treated with vehicle (distilled water) vehicle control; • Group 2: treated with vehicle (drinking water and STZ) diabetic control; • Group 3: treated with metformin (10 mg/kg body weight/day in drinking water) diabetic test; and • Group 4: treated with Biguanide of Ibuprofen (10 mg/kg body weight/day in drinking water) diabetic test.
The treatment with metformin and Biguanide of Ibuprofen was given for 14 days. And at the end of treatment fasting blood glucose estimation was performed.

[2] = system: CAR-induced paw edema; experiment: CAR-induced paw edema anti-inflammatory study; format: in vivo, Male Wistar rats; details: for water volume displacement digital plethysmometer (paw volume): 5 mg/kg i.p., Mean ± SD, n=4
Description: as §1
In the second experiment, the anti-inflammatory effect of Biguanide of Ibuprofen in comparison Ibuprofen was assessed by CAR-induced paw edema. The experimental groups were designed as follows (n=4 per group): • Group 1. Control group: 100 μl saline (i.d.)+saline (i.p.), • Group 2. CAR group: 100 μl CAR (i.d.)+saline (i.p.), • Group 3. Ibuprofen 5 mg/kg group: 100 μl CAR (i.d.)+5 mg/kg Ibuprofen (i.p.), • Group 4. Biguanide of Ibuprofen 5 mg/kg group: 100 μl CAR (i.d.)+5 mg/kg Biguanide of Ibuprofen (i.p.),
Carrageenan (100 μl) was injected by i.d. route per rat into the right hind paw. The rats were injected with i.p. Ibuprofen (5 mg/kg), and Biguanide of Ibuprofen (5 mg/kg) immediately after CAR injection. Saline was given to the control group. The paw volume was measured plethysmographically at 0 min, 30 min, 60 min, 90 min, 120 min, 180 min and 240 min. The 0th min reading was considered as the initial paw size of the rats. The change in the paw volume in the test groups was compared with the untreated control groups. The reduction in paw volume (mL) with the help of water plethysmometer was recorded.

[3] = Day 7, 10 mg/kg body weight/day in drinking water
[4] = Day 14, 10 mg/kg body weight/day in drinking water

SMILES | Effect on FBG levels in diabetic rats (in words) ([1]; 10 mg/kg/day, 14 days) | Fasting Blood Glucose (FBG) [1, 3] [mmol/L] | Fasting Blood Glucose (FBG) [1, 4] [mmol/L] | Reduction in FBG compared to metformin (in words) ([1]; both 10 mg/kg/day, 14 days) | water volume displacement digital plethysmometer (paw volume) ([2]; 0 min (initial paw size)) [mL] | water volume displacement digital plethysmometer (paw volume) ([2]; 30 min after CAR) [mL] | water volume displacement digital plethysmometer (paw volume) ([2]; 60 min after CAR) [mL] | water volume displacement digital plethysmometer (paw volume) ([2]; 90 min after CAR) [mL] | water volume displacement digital plethysmometer (paw volume) ([2]; 120 min after CAR) [mL] | water volume displacement digital plethysmometer (paw volume) ([2]; 180 min after CAR) [mL] | water volume displacement digital plethysmometer (paw volume) ([2]; 240 min after CAR) [mL] | Paw volume compared to Ibuprofen (in words) ([2]; CAR-induced paw edema, both 5 mg/kg i.p.)
CC(C)Cc1ccc(C(C)C(=O)NNC(=N)NC(=N)N)cc1 (centres unmarked) [Biguanide of Ibuprofen, N-carbamimidoyl-2-(2-(4-isobutylphenyl)propanoyl) hydrazine-1-carboximidamide] | significant lowering of FBG levels | 22.93 ± 0.97 | 6.38 ± 0.86 | more marked reduction in FBG when compared to metformin | 0.692 ± 0.012 | 0.853 ± 0.016 | 0.940 ± 0.013 | 0.875 ± 0.021 | 0.815 ± 0.015 | 0.740 ± 0.018 | 0.710 ± 0.011 | significantly decreased paw volume, when compared to that of the Ibuprofen
CN(C)C(=N)N=C(N)N [metformin, 3-(diaminomethylidene)-1,1-dimethylguanidine, reference compound] |  | 22.77 ± 1.12 | 10.27 ± 1.21 |  |  |  |  |  |  |  |  | 
